Results: ChEMBL document CHEMBL3046210, “6-Imino-2-thioxo-pyrimidinones as a new class of dipeptidyl peptidase IV inhibitors” (Med Chem Res, 2011)

Legend:
THP-1 = assay: Cytotoxicity against Homo sapiens (human) THP1 cells up to 0.1 mM after 24 hr by MTS assay; type: cell-based; conditions: thp-1, 24 h
HepG2 = assay: Cytotoxicity against Homo sapiens (human) HepG2 cells up to 0.1 mM after 24 hr by MTS assay; type: cell-based; conditions: hepg2, 24 h

SMILES | Activity (THP-1) | Activity (HepG2)
COc1cc(CC2(C(C)C)C(=N)NC(=S)NC2=O)cc(OC)c1OC (stereo unspecified) | Non-toxic | Non-toxic
COc1cc(CC2(Cc3cc(OC)c(OC)c(OC)c3)C(=N)NC(=S)NC2=O)cc(OC)c1OC | Non-toxic | Non-toxic
C=CCC1(Cc2cc(OC)c(OC)c(OC)c2)C(=N)NC(=S)NC1=O (stereo unspecified) | Non-toxic | Non-toxic
CCC1(Cc2cc(OC)c(OC)c(OC)c2)C(=N)NC(=S)NC1=O (stereo unspecified) | Non-toxic | Non-toxic
CCCCC1(Cc2cc(OC)c(OC)c(OC)c2)C(=N)NC(=S)NC1=O (stereo unspecified) | Non-toxic | Non-toxic
COc1cc(CC2(C)C(=N)NC(=S)NC2=O)cc(OC)c1OC (stereo unspecified) | Non-toxic | Non-toxic
COc1cc(CC2C(=N)NC(=S)NC2=O)cc(OC)c1OC (stereo unspecified) | Non-toxic | Non-toxic
CCCC1(Cc2cc(OC)c(OC)c(OC)c2)C(=N)NC(=S)NC1=O (stereo unspecified) | Non-toxic | Non-toxic
